# Experimental data: the supplement of paper PMC9912026
# Test system: HT29
# Assay: pERK immunofluorescence normalised to no-drug reference (=1); higher = more ERK phosphorylation (less pathway inhibition)
# Details: drug treatment time 24 h, EGF time 8 h
# Method: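 A375 CRISPRa-EGFR (A375_aEGFR2) or HT29 cells were treated with two-drug dose combinations (vemurafenib, LY3009120, cobimetinib) for 24 h, then stimulated with EGF (100 ng/mL) or mock medium for 8 h. pERK (T202/Y204) was measured by immunofluorescence as the cytosolic population average, normalised to an untreated no-drug reference of the block (=1). Averages of 2 technical replicates. A375 in 5% FBS, HT29 in 10% FBS.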
smiles,measurement,setting,value
CCCS(=O)(=O)Nc1ccc(F)c(C(=O)c2c[nH]c3ncc(-c4ccc(Cl)cc4)cc23)c1F [Vemurafenib] + O=C(c1ccc(F)c(F)c1Nc1ccc(I)cc1F)N1CC(O)([C@@H]2CCCCN2)C1 [Cobimetinib],pERK immunofluorescence normalised,"drug A concentration 0.001 µM, drug B concentration 0.316228 µM, EGF 0 ng/mL",0.0917
same,pERK immunofluorescence normalised,"drug A concentration 0.001 µM, drug B concentration 0.316228 µM, EGF 100 ng/mL",0.213
same,pERK immunofluorescence normalised,"drug A concentration 0.001 µM, drug B concentration 1 µM, EGF 0 ng/mL",0.0915
same,pERK immunofluorescence normalised,"drug A concentration 0.001 µM, drug B concentration 1 µM, EGF 100 ng/mL",0.108
same,pERK immunofluorescence normalised,"drug A concentration 0.00316 µM, drug B concentration 0 µM, EGF 0 ng/mL",1.07
same,pERK immunofluorescence normalised,"drug A concentration 0.00316 µM, drug B concentration 0 µM, EGF 100 ng/mL",1.05
same,pERK immunofluorescence normalised,"drug A concentration 0.00316 µM, drug B concentration 0.0001 µM, EGF 0 ng/mL",1.06
same,pERK immunofluorescence normalised,"drug A concentration 0.00316 µM, drug B concentration 0.0001 µM, EGF 100 ng/mL",1.13
same,pERK immunofluorescence normalised,"drug A concentration 0.00316 µM, drug B concentration 0.0003162 µM, EGF 0 ng/mL",1.02
same,pERK immunofluorescence normalised,"drug A concentration 0.00316 µM, drug B concentration 0.0003162 µM, EGF 100 ng/mL",1.17
same,pERK immunofluorescence normalised,"drug A concentration 0.00316 µM, drug B concentration 0.001 µM, EGF 0 ng/mL",0.836
same,pERK immunofluorescence normalised,"drug A concentration 0.00316 µM, drug B concentration 0.001 µM, EGF 100 ng/mL",1.04
same,pERK immunofluorescence normalised,"drug A concentration 0.00316 µM, drug B concentration 0.00316228 µM, EGF 0 ng/mL",0.463
same,pERK immunofluorescence normalised,"drug A concentration 0.00316 µM, drug B concentration 0.00316228 µM, EGF 100 ng/mL",1.03
same,pERK immunofluorescence normalised,"drug A concentration 0.00316 µM, drug B concentration 0.01 µM, EGF 0 ng/mL",0.225
same,pERK immunofluorescence normalised,"drug A concentration 0.00316 µM, drug B concentration 0.01 µM, EGF 100 ng/mL",0.887
same,pERK immunofluorescence normalised,"drug A concentration 0.00316 µM, drug B concentration 0.0316228 µM, EGF 0 ng/mL",0.132
same,pERK immunofluorescence normalised,"drug A concentration 0.00316 µM, drug B concentration 0.0316228 µM, EGF 100 ng/mL",0.769
same,pERK immunofluorescence normalised,"drug A concentration 0.00316 µM, drug B concentration 0.1 µM, EGF 0 ng/mL",0.0985
same,pERK immunofluorescence normalised,"drug A concentration 0.00316 µM, drug B concentration 0.1 µM, EGF 100 ng/mL",0.496
same,pERK immunofluorescence normalised,"drug A concentration 0.00316 µM, drug B concentration 0.316228 µM, EGF 0 ng/mL",0.0922
same,pERK immunofluorescence normalised,"drug A concentration 0.00316 µM, drug B concentration 0.316228 µM, EGF 100 ng/mL",0.213
same,pERK immunofluorescence normalised,"drug A concentration 0.00316 µM, drug B concentration 1 µM, EGF 0 ng/mL",0.0903
same,pERK immunofluorescence normalised,"drug A concentration 0.00316 µM, drug B concentration 1 µM, EGF 100 ng/mL",0.106
same,pERK immunofluorescence normalised,"drug A concentration 0.01 µM, drug B concentration 0 µM, EGF 0 ng/mL",0.924
same,pERK immunofluorescence normalised,"drug A concentration 0.01 µM, drug B concentration 0 µM, EGF 100 ng/mL",1.03
same,pERK immunofluorescence normalised,"drug A concentration 0.01 µM, drug B concentration 0.0001 µM, EGF 0 ng/mL",0.922
same,pERK immunofluorescence normalised,"drug A concentration 0.01 µM, drug B concentration 0.0001 µM, EGF 100 ng/mL",1.04
same,pERK immunofluorescence normalised,"drug A concentration 0.01 µM, drug B concentration 0.0003162 µM, EGF 0 ng/mL",0.868
same,pERK immunofluorescence normalised,"drug A concentration 0.01 µM, drug B concentration 0.0003162 µM, EGF 100 ng/mL",1.04
same,pERK immunofluorescence normalised,"drug A concentration 0.01 µM, drug B concentration 0.001 µM, EGF 0 ng/mL",0.73
same,pERK immunofluorescence normalised,"drug A concentration 0.01 µM, drug B concentration 0.001 µM, EGF 100 ng/mL",0.958
same,pERK immunofluorescence normalised,"drug A concentration 0.01 µM, drug B concentration 0.00316228 µM, EGF 0 ng/mL",0.416
same,pERK immunofluorescence normalised,"drug A concentration 0.01 µM, drug B concentration 0.00316228 µM, EGF 100 ng/mL",1
same,pERK immunofluorescence normalised,"drug A concentration 0.01 µM, drug B concentration 0.01 µM, EGF 0 ng/mL",0.201
same,pERK immunofluorescence normalised,"drug A concentration 0.01 µM, drug B concentration 0.01 µM, EGF 100 ng/mL",0.902
same,pERK immunofluorescence normalised,"drug A concentration 0.01 µM, drug B concentration 0.0316228 µM, EGF 0 ng/mL",0.124
same,pERK immunofluorescence normalised,"drug A concentration 0.01 µM, drug B concentration 0.0316228 µM, EGF 100 ng/mL",0.738
same,pERK immunofluorescence normalised,"drug A concentration 0.01 µM, drug B concentration 0.1 µM, EGF 0 ng/mL",0.0992
same,pERK immunofluorescence normalised,"drug A concentration 0.01 µM, drug B concentration 0.1 µM, EGF 100 ng/mL",0.473
same,pERK immunofluorescence normalised,"drug A concentration 0.01 µM, drug B concentration 0.316228 µM, EGF 0 ng/mL",0.093
same,pERK immunofluorescence normalised,"drug A concentration 0.01 µM, drug B concentration 0.316228 µM, EGF 100 ng/mL",0.213
same,pERK immunofluorescence normalised,"drug A concentration 0.01 µM, drug B concentration 1 µM, EGF 0 ng/mL",0.0898
same,pERK immunofluorescence normalised,"drug A concentration 0.01 µM, drug B concentration 1 µM, EGF 100 ng/mL",0.107
same,pERK immunofluorescence normalised,"drug A concentration 0.0316 µM, drug B concentration 0 µM, EGF 0 ng/mL",0.742
same,pERK immunofluorescence normalised,"drug A concentration 0.0316 µM, drug B concentration 0 µM, EGF 100 ng/mL",0.843
same,pERK immunofluorescence normalised,"drug A concentration 0.0316 µM, drug B concentration 0.0001 µM, EGF 0 ng/mL",0.727
same,pERK immunofluorescence normalised,"drug A concentration 0.0316 µM, drug B concentration 0.0001 µM, EGF 100 ng/mL",0.912
same,pERK immunofluorescence normalised,"drug A concentration 0.0316 µM, drug B concentration 0.0003162 µM, EGF 0 ng/mL",0.695
same,pERK immunofluorescence normalised,"drug A concentration 0.0316 µM, drug B concentration 0.0003162 µM, EGF 100 ng/mL",0.902
same,pERK immunofluorescence normalised,"drug A concentration 0.0316 µM, drug B concentration 0.001 µM, EGF 0 ng/mL",0.513
same,pERK immunofluorescence normalised,"drug A concentration 0.0316 µM, drug B concentration 0.001 µM, EGF 100 ng/mL",0.933
same,pERK immunofluorescence normalised,"drug A concentration 0.0316 µM, drug B concentration 0.00316228 µM, EGF 0 ng/mL",0.389
same,pERK immunofluorescence normalised,"drug A concentration 0.0316 µM, drug B concentration 0.00316228 µM, EGF 100 ng/mL",0.854
same,pERK immunofluorescence normalised,"drug A concentration 0.0316 µM, drug B concentration 0.01 µM, EGF 0 ng/mL",0.189
